Drawing on PMC8410435, “Evaluation of Neuraminidase Inhibitory Activity of Compounds and Extracts from Traditional Medicines by HPLC-FLD” (International Journal of Analytical Chemistry, 2021), this text covers IC50 for 13 molecules.

The target of assay [1] is T1, neuraminidase (NA), from Sigma-Aldrich.
T1 construct: gene nanH
It is filed as biochemical.

The target is the same in assay [2]. Type of assay: biochemical. The following applies: read-out: HPLC-FLD.

Structures are written as SMILES. Where two headings read alike, the source gives them in different places.

In the case of `COC(=O)C1=CO[C@@H](O[C@@H]2O[C@H](CO)[C@@H](O)[C@H](O)[C@H]2O)[C@@H]2C(CO)=CC[C@H]12` [compound 1, Geniposide], the IC50 in assay [1] (read-out: HPLC-FLD) worked out at 970 ± 90 µM. With `COC(=O)C1=CO[C@@H](O[C@@H]2O[C@H](CO)[C@@H](O)[C@H](O)[C@H]2O)[C@H]2[C@@H]1[C@H](O)C[C@]2(C)O` [compound 2, Shanzhiside methyl ester], the IC50 in assay [1] (read-out: NA enzyme-based inhibitory assays) is 10 µM.

Turning to `O=C(/C=C/c1ccc(O)c(O)c1)O[C@@H]1C[C@](O)(C(=O)O)C[C@@H](O)[C@H]1O` [compound 3, Chlorogenic acid], the IC50 in assay [1] (read-out: HPLC-FLD) was 2560 ± 60 µM. Same read-out and setting: as for `O=C(/C=C/c1ccc(O)c(O)c1)O[C@H]1[C@H](O)C[C@](O)(C(=O)O)C[C@H]1O` [compound 4, Cryptochlorogenin acid], the figure is 2200 ± 10 µM. Same read-out and setting: next, `O=C(/C=C/c1ccc(O)c(O)c1)O[C@@H]1[C@H](O)C[C@@](O)(C(=O)O)C[C@H]1OC(=O)/C=C/c1ccc(O)c(O)c1` [compound 6, Isochlorogenic acid C]: 1170 ± 50 µM; `O=C(O)[C@H]1O[C@@H](Oc2cc3oc(-c4ccccc4)cc(=O)c3c(O)c2O)[C@H](O)[C@@H](O)[C@@H]1O` [compound 7, Baicalin]: 500 ± 40 µM. For the molecule `O=c1cc(-c2ccccc2)oc2cc(O)c(O)c(O)c12` [compound 8, Baicalein], the IC50 in assay [1] (read-out: HPLC-FLD) came to 110 ± 10 µM. Same read-out and setting: as for `CC(C)=CCOc1c2ccoc2cc2oc(=O)ccc12` [compound 9, Isoimpemtorin], the figure is 660 ± 160 µM; as for `O=c1ccc2cc3ccoc3cc2o1` [compound 10, Psoralen], 1000 ± 630 µM. For `O=c1ccc2ccc3occc3c2o1` [compound 11, Angelicin], in assay [2], the IC50 amounted to 2550 ± 380 µM.

For the molecule `O=c1ccc2cc3ccoc3c(O)c2o1` [compound 12, Xanthotol], the IC50 in assay [1] (read-out: HPLC-FLD) came to 1050 ± 70 µM.

On to `COc1c2ccoc2cc2oc(=O)ccc12` [compound 13, Bergapten], for which the IC50 in assay [1] (read-out: HPLC-FLD) came to 2800 ± 160 µM. The same measure, in the same setting: as for `COc1ccc2ccc(=O)oc2c1CC=C(C)C` [compound 14, Osthole], the figure is 2140 ± 150 µM.
